Measured values published in patent US20060228347A1, “Antitumor agent and dnase” (Susumu SUNAGA and SUNNYVALE COMPANY, priority 2005, published 2006).
Converted amounts (≈) assume the structure as drawn. Blank lines part the entries; values can stand above or below the compound they belong to.

What was measured:
MKN-28 cell [1] = experiment: Appearance of mitotic (round) cells after colcemid treatment; format: cell-based, human
Experimental: (§1) A synthetic colchicine, colcemid (J. Radiat. Res., 14, 258-270, 1971) was used to prepare the M-phase cell. The optimum conditions for obtaining the living M-phase cell, and the conditions for evaluation the activity of inhibiting a cell proliferation by the MTT method were examined.
(§2) More particularly, cells were cultivated in a 25-cm^2 culture flask (Falcon, 3014, 50 mL) for 3 days. After the mono-layered cells were washed, a growth medium supplemented with 0.025 μg/mL of colcemid (Nakarai, 09356-74) was added, and incubated at 37° C. for 6 hours. After the cells were washed gently, the culture flask was gently shaken to collect cells removed from the bottom of the flask. The collected cells were washed with the medium (GM) by centrifugation to remove colcemid. The washed cells were suspended in the growth medium and incubated.
(§3) The incubated cells were observed under a microscope at intervals of an hour; an appearance of mitotic cells is shown in Table 19. The appearance of mitotic cells was judged by an appearance of round cells as an index. Although almost cultured cells adhere to the glass surface and are thinly spread, mitotic cells become round and tend to leave the glass surface. Therefore, an appearance of round cells which tend to leave the monolayer was used as the index.
(§4) In Table 19, “−” means that the round cells appeared at a percentage of 0% with respect to the whole cells, “±” means that the round cells appeared at a percentage less than 5%, and “+” means that the round cells appeared at a percentage from 5% to less than 30%. The numbers in parentheses of “Round cells/flask” are numbers of positive cells strained by trypan blue.

MRC-5 cell [2] = experiment: as above; format: cell-based, human
Experimental: as §1, §2, §3, §4

HeLa cell = experiment: MTT method, cell proliferation inhibition by cell fractions; format: cell-based; details: Homo sapiens
Experimental: (§5) More particularly, cells for evaluation, i.e., a cancer cell line (for example, an MKN-28 cell or a HeLa cell) and a normal cell (for example, an MRC-5 cell or an HEF cell) are prepared as cell suspensions. An appropriately diluted series (for example, 1/2, 1/4, 1/8, 1/16, and 1/32) of a DNase solution are poured into each well of a microplate. After each cell suspension is further added into each well, the cells are cultivated for a predetermined period (for example, 4 days). After the cultivation, an MTT [3-(4,5-dimethylthiazol-2-yl)-2,5-diphenyltetrazolium bromide; Sigma chemical Co.] solution is added into each well. After an incubation for a predetermined period (for example, at 37° C. for 4 hours), a culture supernatant is removed from each well, and then an MTT formazan elution liquid [acidified isopropanol containing 10% (V/V) Triton X-100] is added into each well. […] The IC50 value is indicated as a dilution of a test liquid or a concentration (for example, μg/mL) of a test drug which can inhibit a proliferation of a control cell (without an antitumor agent) to 50%. When the dilution is high, or when the drug concentration is low, it can be judged that the drug (substance) tested has a high activity.
(§6) As cells for evaluation, the MKN-28 cell and the HeLa cell were used as cancer cell lines, and the MRC-5 cell was used as a normal cell. After each cell line was cultured for 3 days, cells were treated with trypsin, and dispersed cells were washed with PBS by centrifugation. Washed cells were suspended in a Dulbecco's modified Eagle's MEM medium containing 8% fetal calf serum (hereinafter referred to as GM), and counted with a hemocytometer. Each cell suspension was adjusted with the GM to cell densities of 5000 cells/50 μL and 2500 cells/50 μL (cancer cell lines) or 10000 cells/50 μL and 5000 cells/50 μL (MRC-5 cell).
(§7) To each well in a 96-well flat-bottomed plate, diluted series (undiluted, 1/2, 1/4, 1/8, 1/16, and 1/32; 50 μL/well) of each centrifugal supernatant or centrifugal pellet prepared in Example 1 were added. Further, each cell suspension was added to each well, and the plate was incubated at 37° C. in a CO2 incubator. After 3 or 4 days from the beginning of the incubation, 20 μL/well of an MTT solution was added to each well, and the plate was incubated at 37° C. for 3 hours. The culture supernatant was removed from each well, and 100 μL of an MTT formazan elution liquid was added to each well.
(§8) As a control, PBS was used instead of the diluted series of each centrifugal supernatant or centrifugal pellet. For comparison, 5-fold-diluted series (100 μg/mL, 20 μg/mL, 4 μg/mL, 0.8 μg/mL, 0.16 μg/mL, and 0.032 μg/mL) of 5-fluorouracil (5-FU) were used instead of the diluted series of each centrifugal supernatant or centrifugal pellet.
(§9) The IC50 values when the cancer cell line MKN-28 was used as the cell for evaluation and the centrifugal supernatant and the centrifugal pellet derived from the MKN-28 cell were used as the cell fraction are shown in Table 6. Each IC50 value shown in Table 6 (or Tables 7 to 10 described below) is an average of plural (two to four) values. Each IC50 value is shown as a dilution (i.e., relative value) of a test liquid [or a concentration of a test drug (μg/mL for 5-FU)] which can inhibit a proliferation of a control cell (without an antitumor agent) to 50%.

MKN-28 cell [3] = experiment: as above; format: cell-based; details: Homo sapiens
Experimental: as §5, §6, §7, §8, §9

MRC-5 cell [4] = experiment: as above; format: cell-based; details: Homo sapiens
Experimental: as §5, §6, §7, §8, §9

Structure (SMILES): CN[C@H]1CCc2cc(OC)c(OC)c(OC)c2-c2ccc(OC)c(=O)cc21 [colcemid]
Round cells/flask (MKN-28 cell [1]; MKN-28): 93000 | yield of colcemid-treated cells (number of cells after the treatment/number of cells before the treatment) (MKN-28 cell [1]; MKN-28): 1.4% | Appearance of round cells (MKN-28 cell [1]; MKN-28, 1 hr, 0.025 μg/mL colcemid): − (the round cells appeared at a percentage of 0% with respect to the whole cells) | Appearance of round cells (MKN-28 cell [1]; MKN-28, 2 hr): ± (the round cells appeared at a percentage less than 5%) | Appearance of round cells (MKN-28 cell [1]; MKN-28, 3 hr): + (the round cells appeared at a percentage from 5% to less than 30%) | Appearance of round cells (MKN-28 cell [1]; MKN-28, 4 hr): + (the round cells appeared at a percentage from 5% to less than 30%) | Appearance of round cells (MKN-28 cell [1]; MKN-28, 5 hr): + (the round cells appeared at a percentage from 5% to less than 30%) | Round cells/flask: positive cells strained by trypan blue (MKN-28 cell [1]; MKN-28, number in parentheses): 0 | Round cells/flask (MRC-5 cell [2]; MRC-5): 153000 | yield of colcemid-treated cells (number of cells after the treatment/number of cells before the treatment) (MRC-5 cell [2]; MRC-5): 29% | Appearance of round cells (MRC-5 cell [2]; MRC-5, 1 hr, 0.025 μg/mL colcemid): − (the round cells appeared at a percentage of 0% with respect to the whole cells) | Appearance of round cells (MRC-5 cell [2]; MRC-5, 2 hr): ± (the round cells appeared at a percentage less than 5%) | Appearance of round cells (MRC-5 cell [2]; MRC-5, 3 hr): + (the round cells appeared at a percentage from 5% to less than 30%) | Appearance of round cells (MRC-5 cell [2]; MRC-5, 4 hr): + (the round cells appeared at a percentage from 5% to less than 30%) | Appearance of round cells (MRC-5 cell [2]; MRC-5, 5 hr): + (the round cells appeared at a percentage from 5% to less than 30%) | Round cells/flask: positive cells strained by trypan blue (MRC-5 cell [2]; MRC-5, number in parentheses): 0

IC50 (HeLa cell; 72 h, Table 7, HeLa (3 days), 2500 cells/well): 5 µg/mL (≈ 38.4 µM) | IC50 (HeLa cell; 72 h, Table 7, HeLa (3 days), 5000 cells/well): 7.3 µg/mL (≈ 56.1 µM) | IC50 (HeLa cell; 72 h, Table 9, 3-day cultivation, 2500 cells/well): 7 µg/mL (≈ 53.8 µM) | IC50 (HeLa cell; 72 h, Table 9, 3-day cultivation, 5000 cells/well): 12 µg/mL (≈ 92.3 µM) | IC50 (HeLa cell; 96 h, Table 7, HeLa (4 days), 2500 cells/well): 3.6 µg/mL (≈ 27.7 µM) | IC50 (HeLa cell; 96 h, Table 7, HeLa (4 days), 5000 cells/well): 3.6 µg/mL (≈ 27.7 µM) | IC50 (HeLa cell; 96 h, Table 10, 4-day cultivation, 2500 cells/well): 6.2 µg/mL (≈ 47.7 µM) | IC50 (HeLa cell; 96 h, Table 10, 4-day cultivation, 5000 cells/well): 13 µg/mL (≈ 99.9 µM) | IC50 (MKN-28 cell [3]; MKN-28, 72 h, Table 6, MKN (3 days), 2500 cells/well): 4.6 µg/mL (≈ 35.4 µM) | IC50 (MKN-28 cell [3]; MKN-28, 72 h, Table 6, MKN (3 days), 5000 cells/well): 5.9 µg/mL (≈ 45.4 µM) | IC50 (MKN-28 cell [3]; MKN-28, 72 h, Table 9, 3-day cultivation, MKN, 2500 cells/well): 4.6 µg/mL (≈ 35.4 µM) | IC50 (MKN-28 cell [3]; MKN-28, 72 h, Table 9, 3-day cultivation, MKN, 5000 cells/well): 6 µg/mL (≈ 46.1 µM) | IC50 (MKN-28 cell [3]; MKN-28, 96 h, Table 6, MKN (4 days), 2500 cells/well): 3.7 µg/mL (≈ 28.4 µM) | IC50 (MKN-28 cell [3]; MKN-28, 96 h, Table 6, MKN (4 days), 5000 cells/well): 14.8 µg/mL (≈ 114 µM) | IC50 (MKN-28 cell [3]; MKN-28, 96 h, Table 10, 4-day cultivation, MKN, 2500 cells/well): 4.7 µg/mL (≈ 36.1 µM) | IC50 (MKN-28 cell [3]; MKN-28, 96 h, Table 10, 4-day cultivation, MKN, 5000 cells/well): 11.6 µg/mL (≈ 89.2 µM)
Structure (SMILES): O=c1[nH]cc(F)c(=O)[nH]1 [5-FU, 5-fluorouracil]
IC50 (MRC-5 cell [4]; MRC5, 72 h, Table 8, MRC (3 days), 5000 cells/well): > 100 µg/mL | IC50 (MRC-5 cell [4]; MRC5, 72 h, Table 8, MRC (3 days), 10000 cells/well): > 100 µg/mL | IC50 (MRC-5 cell [4]; MRC5, 72 h, Table 9, 3-day cultivation, MRC, 5000 cells/well): > 100 µg/mL | IC50 (MRC-5 cell [4]; MRC5, 72 h, Table 9, 3-day cultivation, MRC, 10000 cells/well): > 100 µg/mL | IC50 (MRC-5 cell [4]; MRC5, 96 h, Table 8, MRC (4 days), 5000 cells/well): 92 µg/mL (≈ 707 µM) | IC50 (MRC-5 cell [4]; MRC5, 96 h, Table 8, MRC (4 days), 10000 cells/well): > 100 µg/mL | IC50 (MRC-5 cell [4]; MRC5, 96 h, Table 10, 4-day cultivation, MRC, 5000 cells/well): 92 µg/mL (≈ 707 µM) | IC50 (MRC-5 cell [4]; MRC5, 96 h, Table 10, 4-day cultivation, MRC, 10000 cells/well): > 100 µg/mL
